Test results published in US9597436B2, “Advanced heart failure treatment material as myocardial/cardiovascular regeneration device” (Osaka University, priority 2012, dated 2017).

What was measured:
[1] = tested on: coculture of NHDF and HUVEC; assay: Internal regeneration factors under coculture of NHDF and HUVEC; format: cell-based, human
Source text: The compound 1 is a low molecular […] having the non-PG skeleton, and TXA2 synthase inhibitory action as well as selective IP agonist action is integrated into the molecule.

fibroblasts = conditions: cited from earlier work
[2] = tested on: acute hepatopathy induced by carbon tetrachloride; conditions: cited from earlier work

## O=C(O)COc1cccc2c1CCC=C2CCO/N=C(\c1ccccc1)c1cccnc1 [Compound 1, (E)-[5-[2-[1-phenyl-1-(3-pyridyl)methylideneaminoxy]ethyl]-7,8-dihydronaphthalen-1-yloxy]acetic acid]
[1]
  internal regeneration factors (HGF, VEGF, EGF, IGF-1, SDF-1, G-CSF): indicates various types of internal regeneration factors
fibroblasts
  migration, proliferation, and collagen production of fibroblasts: suppresses
fibroblasts; progressed due to pathology, by activation of cAMP/PKA
  phosphorylation of ERK1/2: suppresses
[2]
  hepatocyte protection (anti-apoptotic and anti-necrosis action): exhibits hepatocyte protection effects
  increases in ALT and AST in blood: suppresses
